Usually Kd stands for the constant that tells how readily two partners part at equilibrium. The low end stands for higher affinity, the high end for lower affinity.

The source of these data is paper PMC5628141 (Molecular cancer therapeutics, 2017).

The target in the assay is T1, androgen receptor DNA binding domain (AR-DBD) (Rattus norvegicus, UniProt P15207, C552A).
T1 sequence (P15207 550-637 C552A): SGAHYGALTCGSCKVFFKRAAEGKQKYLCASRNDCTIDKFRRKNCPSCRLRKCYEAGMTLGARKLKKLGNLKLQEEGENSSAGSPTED
Kind of assay: isothermal titration calorimetry.

On to `Brc1cn(-c2csc(N3CCOCC3)n2)c(Br)n1` [VPC-14449, 4-(4-(2,4-bromo-1H-imidazol-1-yl)thiazol-2-yl)morpholine], for which the Kd was ~64 µM.
